We go through five molecules from ChEMBL document CHEMBL1201862, “PubChem BioAssay data set” (2004).

In general, CC50 refers to the concentration giving 50% cytotoxicity. Usually EC50 stands for the concentration at which the effect is half-maximal. One may read the AC50 as the midpoint of the concentration-response curve, whichever way the signal moves.

Assay [1] is described as follows: A Cell Based Secondary Assay To Explore Cytotoxicity of Compounds that Sensitize Mycobacterium Tuberculosis to Beta-Lactam Antibiotics. Format: functional.
The next assay has as its target Kallikrein-7 (Homo sapiens, UniProt P49862). The assay can be described thus: Fluorescence Intensity-based biochemical primary high throughput dose response assay to identify activators of kallikrein-7 (K7) zymogen.
Assay [2] is described as follows: Shn3 3'UTR reporter inhibitors, dose response, cell-based, Clone20 osteoblasts, firefly luciferase, cherry-picked (AID 624132).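 Also: firefly luciferase luminescence from reporter carrying the Shn3 3'UTR in osteoblasts.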 Format: functional.
The nature of assay [3]: HepG2 cell cytotoxicity, dose response, cytotoxicity control for Shn3 inhibitor project, CellTiter-Glo, cherry-picked (AID 624134). Format: functional, cell-based. For orientation: Cellular ATP, detected with luciferase, serves as a proxy for viable cell number.
The nature of assay [4]: reduction of Shn3 3'UTR firefly luciferase signal, dose response, Schnurri-3 inhibitor project, cell-based, Clone20 osteoblasts, cherry-pick, set 2 (AID 720490).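 Also: actives lower the luminescence signal as inhibitors.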 In kind it is functional.
Assay [5] is described as follows: inhibitors of control Renilla luciferase reporter, dose response, counter-screen for Shn3 3'UTR targeting project, Clone20-Shn3RL cells, dual-Glo, cherry-pick, set 2 (AID 720724). Format: functional, cell-based. Particulars: Dual-Go Shn3RL. A general note: In a reporter assay the amount or activity of a reporter protein is the signal.
The target in another assay is Paired box protein Pax-8 (Homo sapiens, UniProt Q06710). Kind of assay: inhibitors of PAX8-driven TPO luciferase reporter, dose response, RMG-I cells, cherry-pick (AID 687027).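 Also: luciferase reporter driven by Pax8 target thyroperoxidase promoter measured by SteadyGlo luminescence.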 Format: functional, cell-based.
Assay [6] can be described thus: PAX2 cell-based inhibition, dose response, selectivity assay for PAX8 inhibitor project, plate reader, dry powder samples (AID 743048).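 Also: HEK293 cells carrying a WT1 promoter luciferase reporter driven by expressed Pax2; potency is for inhibition of Pax2 driven reporter signal.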 Format: functional.
The nature of assay [7]: cytotoxicity in COV362 ovarian cancer cells, dose response, cytotoxicity control for PAX8 inhibitor project, cell-based, plate reader, dry powder, SA12 (AID 743144). In kind it is functional.
A short description of assay [8]: PAX5 activity inhibitors, dose response, selectivity assay for PAX8 inhibitor project, cell-based, plate reader, dry powder samples (AID 743047).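 Also: HEK293 cells carrying a Pax5 driven CD19 promoter luciferase reporter; potency of inhibitors that lower reporter luminescence.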 In kind it is functional.
Assay [9] in a line: IGROV1 ovarian cancer cell cytotoxicity, dose response, PAX8 inhibitor project, plate reader, dry powder samples (AID 743043). In kind it is functional, cell-based. Particulars: IGROV-1.
Assay [10] can be described thus: cytotoxicity in OVCAR4 cells, dose response, cytotoxicity control for PAX8 inhibitor project, cell-based, plate reader, dry powder, SA11 (AID 743150). In kind it is functional. Particulars: OVCAR-4.
Assay [11] in a line: cytotoxicity in COV434 cells, dose response, cytotoxicity control for PAX8 inhibitor project, cell-based, plate reader, dry powder, SA7 (AID 743145). In kind it is functional.
Assay [12] in a line: cytotoxicity in OV-90 ovarian cancer cells, dose response, PAX8 inhibitor project, cell-based, plate reader, dry powder, SA8 (AID 743149). In kind it is functional.
Assay [13] can be described thus: cytotoxicity dependent on PAX8, dose response, cell-based, plate reader, dry powder (AID 743049). In kind it is functional.
Assay [14] can be described thus: HeLa cell cytotoxicity, dose response, cytotoxicity control, 24 h, plate reader, powder samples, set 3 (AID 651864). Format: functional, cell-based.
Assay [15] in a line: inhibitors of PGC1a acetylation in cells, dose response, cell-based, cherry-picked samples (AID 720514).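 Also: potency may reflect raised or lowered acetylation signal.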 In kind it is functional.
Assay [16] is described as follows: P. falciparum 3D7-ScDHODH growth inhibitors, dose response, SYBR Green, dry powder samples (AID 1159570).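 Also: parasite growth measured after 72 hours of compound exposure.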 Format: functional, cell-based.
Assay [17] is described as follows: HepG2 cell cytotoxicity, dose response, cytotoxicity control, plate reader, dry powder samples (AID 1159569).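 Also: inhibitor potency with signal falling toward the positive control level.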 Format: functional, cell-based.
Assay [18] can be described thus: P. falciparum Dd2 growth inhibitors, dose response, SYBR Green, cherry-picked samples (AID 1159567). Format: functional, cell-based.
Assay [19] can be described thus: P. falciparum Dd2 growth inhibitors, dose response, SYBR Green, dry powder samples (AID 1159566).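 Also: potency for growth inhibition with lower SYBR green DNA signal.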 In kind it is functional, cell-based.
Assay [20] can be described thus: P. falciparum ATP4 D1247Y mutant growth inhibitors, dose response, NITD609-resistant line, SYBR Green, dry powder (AID 1159571).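 Also: parasites synchronized at ring stage by sorbitol before testing.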 Format: functional, cell-based.

Activity calls are given as the source filed them.

Chain of Paired box protein Pax-8 (Q06710 whole entry): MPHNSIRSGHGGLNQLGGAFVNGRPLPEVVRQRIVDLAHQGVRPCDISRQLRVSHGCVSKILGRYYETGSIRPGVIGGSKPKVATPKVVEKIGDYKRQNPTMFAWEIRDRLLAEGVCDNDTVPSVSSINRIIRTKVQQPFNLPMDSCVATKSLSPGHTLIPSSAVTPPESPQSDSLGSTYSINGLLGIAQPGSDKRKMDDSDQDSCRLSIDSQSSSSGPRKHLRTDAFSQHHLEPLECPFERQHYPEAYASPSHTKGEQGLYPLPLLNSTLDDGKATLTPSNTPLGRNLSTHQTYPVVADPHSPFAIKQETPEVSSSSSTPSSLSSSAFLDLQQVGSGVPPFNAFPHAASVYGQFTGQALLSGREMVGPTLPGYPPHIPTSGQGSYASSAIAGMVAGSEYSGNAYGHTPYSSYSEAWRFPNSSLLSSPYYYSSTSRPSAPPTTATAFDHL
Chain of Kallikrein-7 (P49862 whole entry): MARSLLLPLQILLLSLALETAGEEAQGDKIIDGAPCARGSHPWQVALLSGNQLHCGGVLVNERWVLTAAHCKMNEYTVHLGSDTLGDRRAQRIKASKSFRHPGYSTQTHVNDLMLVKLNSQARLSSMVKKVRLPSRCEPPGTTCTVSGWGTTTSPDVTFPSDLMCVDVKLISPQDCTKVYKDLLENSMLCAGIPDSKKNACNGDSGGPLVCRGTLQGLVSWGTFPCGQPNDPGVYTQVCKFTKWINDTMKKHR

Take `COc1ccc(OC(=O)c2cccc([N+](=O)[O-])c2)c(C(=O)/C=C/c2cccs2)c1`: the half-maximal cytotoxic concentration (CC50) in assay [1] was 39.6 µM (active). Moreover, the EC50 on Kallikrein-7 is 46 µM (inactive).

For the molecule `CN(CC(=O)Nc1ccccc1Cl)C(=O)c1cccc(S(=O)(=O)N2CCN(c3ccccc3)CC2)c1`, the concentration at half-maximal activity (AC50) was 3.84 µM (active) in assay [2], > 70 µM (inactive) in assay [3], 4.32 µM (active) in assay [4] and 47.9 µM (active) in [5].

Take `C[C@@H]1CN([C@H](C)CO)C(=O)c2cc(NC(=O)CCCCCC(=O)Nc3ccccc3N)ccc2O[C@@H]1CN(C)Cc1ccc(C(F)(F)F)cc1`: the AC50 at Paired box protein Pax-8 is 6.43 µM (active); in [6], > 32 µM (inactive); in assay [7], 32.9 µM (active); in [8] it was 30 µM (active); in assay [9] it was 39 µM (active); in assay [10], 31.2 µM (active). Moreover, the AC50 in assay [11] was > 70 µM (inactive); in assay [12] it was > 70 µM (inactive); in [13], 10.1 µM (active).

Turning to `c1ccc(Cn2nnc(NCc3ccc(N4CCCC4)cc3)n2)cc1`, the AC50 in assay [14] is > 160 µM (inactive).

For `O=S(=O)(c1ccc(-c2ccccc2)cc1)N1C[C@@H]2N[C@H](C1)[C@@H]2c1ccc(-c2cccnc2)cc1`, the half-maximal activity concentration (AC50) in [15] is 8.2 µM (active); in assay [16], 1.29 µM (active); in assay [17] it was 19.5 µM (active); in assay [18], 2.14 µM (active); in assay [19], 0.772 µM (active); in [20], 1.8 µM (active).
